Laboratory results reported in the NIST ThermoML archive (doi:10.1016/j.jct.2015.03.021).
± gives the expanded uncertainty stated by the source.

What was measured:
[1] = relative permittivity at various frequencies (dimensionless); settings: 100 kPa, Liquid, Frequency=1 MHz, Parallel plate capacitor
[2] = 101.33 kPa, Liquid, Vibrating tube method
[3] = excess molar enthalpy (molar enthalpy of mixing); xn = mol fraction of the nth substance listed; settings: 100 kPa, Liquid, Calvet calorimetry

CCC(C)CO (stereo not given) [2-methyl-1-butanol]
Settings | mass density, [2] [kg/m3] | relative permittivity, [1]
298.15 K | 814.98 ± 0.31 | 15.52 ± 0.23
308.15 K | 807.63 ± 0.31 | 14.07 ± 0.23

CCC(C)CO (stereo not given) [2-methyl-1-butanol] + CCCCOCCCC
[3]
Settings | excess molar enthalpy [kcal/mol]
298.15 K, x2 = 0.0954 | 0.0664 ± 0.00143
298.15 K, x2 = 0.162 | 0.113 ± 0.00239
298.15 K, x2 = 0.2536 | 0.165 ± 0.00359
298.15 K, x2 = 0.3156 | 0.193 ± 0.00406
298.15 K, x2 = 0.4007 | 0.221 ± 0.00478
298.15 K, x2 = 0.4806 | 0.241 ± 0.00526
298.15 K, x2 = 0.5445 | 0.246 ± 0.00526
298.15 K, x2 = 0.6338 | 0.248 ± 0.00526
298.15 K, x2 = 0.7017 | 0.237 ± 0.00502
298.15 K, x2 = 0.7832 | 0.211 ± 0.00454
298.15 K, x2 = 0.8542 | 0.176 ± 0.00382
298.15 K, x2 = 0.9335 | 0.101 ± 0.00215
308.15 K, x2 = 0.0798 | 0.0595 ± 0.00143
308.15 K, x2 = 0.152 | 0.111 ± 0.00239
308.15 K, x2 = 0.2539 | 0.168 ± 0.00359
308.15 K, x2 = 0.3152 | 0.198 ± 0.0043
308.15 K, x2 = 0.4069 | 0.224 ± 0.00478
308.15 K, x2 = 0.4701 | 0.242 ± 0.00526
308.15 K, x2 = 0.5703 | 0.251 ± 0.0055
308.15 K, x2 = 0.6528 | 0.249 ± 0.00526
308.15 K, x2 = 0.7263 | 0.235 ± 0.00502
308.15 K, x2 = 0.8093 | 0.202 ± 0.0043
308.15 K, x2 = 0.897 | 0.147 ± 0.00311
308.15 K, x2 = 0.9553 | 0.07 ± 0.00167

CCC(C)(C)O [2-methylbutan-2-ol]
Settings | mass density, [2] [kg/m3] | relative permittivity, [1]
298.15 K | 804.31 ± 0.82 | 5.63 ± 0.07
308.15 K | 795.16 ± 0.8 | 5.23 ± 0.07

CCC(C)(C)O [2-methylbutan-2-ol] + CCCCOCCCC
excess molar enthalpy [kcal/mol], [3]
Settings | 298.15 K | 308.15 K
x2 = 0.0916 | 0.0557 ± 0.0012 | –
x2 = 0.0919 | – | 0.065 ± 0.00143
x2 = 0.1591 | 0.098 ± 0.00215 | –
x2 = 0.1603 | – | 0.108 ± 0.00239
x2 = 0.2403 | 0.141 ± 0.00311 | 0.155 ± 0.00335
x2 = 0.3201 | 0.18 ± 0.00382 | –
x2 = 0.3244 | – | 0.188 ± 0.00406
x2 = 0.3985 | 0.21 ± 0.00454 | –
x2 = 0.4034 | – | 0.217 ± 0.00454
x2 = 0.4755 | 0.234 ± 0.00502 | –
x2 = 0.476 | – | 0.244 ± 0.00526
x2 = 0.5445 | 0.249 ± 0.00526 | –
x2 = 0.5541 | – | 0.262 ± 0.00574
x2 = 0.6392 | 0.258 ± 0.0055 | –
x2 = 0.6992 | 0.255 ± 0.0055 | –
x2 = 0.702 | – | 0.272 ± 0.00574
x2 = 0.7733 | 0.237 ± 0.00502 | –
x2 = 0.7747 | – | 0.258 ± 0.0055
x2 = 0.8569 | 0.199 ± 0.0043 | –
x2 = 0.8671 | – | 0.204 ± 0.0043
x2 = 0.9322 | – | 0.129 ± 0.00287
x2 = 0.933 | 0.123 ± 0.00263 | –

CC(C)C(C)O (stereo not given) [3-methyl-2-butanol]
Settings | mass density, [2] [kg/m3] | relative permittivity, [1]
298.15 K | 813.09 ± 0.83 | 11.98 ± 0.19
308.15 K | 804.35 ± 0.82 | 10.78 ± 0.19

CC(C)C(C)O (stereo not given) [3-methyl-2-butanol] + CCCCOCCCC
[3]
Settings | excess molar enthalpy [kcal/mol]
298.15 K, x2 = 0.0959 | 0.0882 ± 0.00191
298.15 K, x2 = 0.1639 | 0.144 ± 0.00311
298.15 K, x2 = 0.2508 | 0.204 ± 0.0043
298.15 K, x2 = 0.3274 | 0.241 ± 0.00526
298.15 K, x2 = 0.3977 | 0.263 ± 0.00574
298.15 K, x2 = 0.4693 | 0.279 ± 0.00598
298.15 K, x2 = 0.552 | 0.289 ± 0.00621
298.15 K, x2 = 0.6335 | 0.287 ± 0.00621
298.15 K, x2 = 0.7081 | 0.273 ± 0.00574
298.15 K, x2 = 0.7757 | 0.248 ± 0.00526
298.15 K, x2 = 0.8645 | 0.194 ± 0.00406
298.15 K, x2 = 0.9394 | 0.106 ± 0.00239
308.15 K, x2 = 0.0813 | 0.0648 ± 0.00143
308.15 K, x2 = 0.155 | 0.118 ± 0.00263
308.15 K, x2 = 0.2572 | 0.181 ± 0.00382
308.15 K, x2 = 0.3229 | 0.233 ± 0.00502
308.15 K, x2 = 0.4119 | 0.263 ± 0.00574
308.15 K, x2 = 0.4817 | 0.281 ± 0.00598
308.15 K, x2 = 0.5473 | 0.288 ± 0.00621
308.15 K, x2 = 0.6348 | 0.287 ± 0.00621
308.15 K, x2 = 0.7226 | 0.269 ± 0.00574
308.15 K, x2 = 0.8083 | 0.235 ± 0.00502
308.15 K, x2 = 0.8908 | 0.168 ± 0.00359
308.15 K, x2 = 0.9786 | 0.0538 ± 0.0012

CC(C)CCO [3-methylbutan-1-ol]
Settings | mass density, [2] [kg/m3] | relative permittivity, [1]
298.15 K | 804.24 ± 0.31 | 15.09 ± 0.22
308.15 K | 796.95 ± 0.31 | 13.73 ± 0.22

CC(C)CCO [3-methylbutan-1-ol] + CCCCOCCCC
[3]
Settings | excess molar enthalpy [kcal/mol]
298.15 K, x2 = 0.092 | 0.0552 ± 0.0012
298.15 K, x2 = 0.1608 | 0.0932 ± 0.00215
298.15 K, x2 = 0.2389 | 0.132 ± 0.00287
298.15 K, x2 = 0.3161 | 0.16 ± 0.00335
298.15 K, x2 = 0.3993 | 0.187 ± 0.00406
298.15 K, x2 = 0.4694 | 0.204 ± 0.0043
298.15 K, x2 = 0.5458 | 0.216 ± 0.00454
298.15 K, x2 = 0.6389 | 0.221 ± 0.00478
298.15 K, x2 = 0.7088 | 0.211 ± 0.00454
298.15 K, x2 = 0.776 | 0.194 ± 0.00406
298.15 K, x2 = 0.8626 | 0.154 ± 0.00335
298.15 K, x2 = 0.9423 | 0.0837 ± 0.00191
308.15 K, x2 = 0.0836 | 0.054 ± 0.0012
308.15 K, x2 = 0.1547 | 0.0951 ± 0.00215
308.15 K, x2 = 0.2348 | 0.138 ± 0.00287
308.15 K, x2 = 0.3248 | 0.176 ± 0.00382
308.15 K, x2 = 0.4249 | 0.202 ± 0.0043
308.15 K, x2 = 0.4894 | 0.22 ± 0.00478
308.15 K, x2 = 0.5775 | 0.228 ± 0.00478
308.15 K, x2 = 0.6519 | 0.226 ± 0.00478
308.15 K, x2 = 0.7302 | 0.214 ± 0.00454
308.15 K, x2 = 0.787 | 0.194 ± 0.00406
308.15 K, x2 = 0.8553 | 0.161 ± 0.00359
308.15 K, x2 = 0.9681 | 0.0564 ± 0.0012

CCC(O)CC [3-pentanol]
Settings | mass density, [2] [kg/m3] | relative permittivity, [1]
298.15 K | 815.62 ± 0.83 | 13.21 ± 0.29
308.15 K | 806.9 ± 0.82 | 11.39 ± 0.29

CCC(O)CC [3-pentanol] + CCCCOCCCC
[3]
Settings | excess molar enthalpy [kcal/mol]
298.15 K, x2 = 0.0979 | 0.0951 ± 0.00215
298.15 K, x2 = 0.1702 | 0.159 ± 0.00335
298.15 K, x2 = 0.2558 | 0.219 ± 0.00478
298.15 K, x2 = 0.3242 | 0.257 ± 0.0055
298.15 K, x2 = 0.4033 | 0.283 ± 0.00598
298.15 K, x2 = 0.4684 | 0.302 ± 0.00645
298.15 K, x2 = 0.5438 | 0.314 ± 0.00669
298.15 K, x2 = 0.6374 | 0.311 ± 0.00669
298.15 K, x2 = 0.7023 | 0.3 ± 0.00645
298.15 K, x2 = 0.7739 | 0.269 ± 0.00574
298.15 K, x2 = 0.8554 | 0.214 ± 0.00454
298.15 K, x2 = 0.9278 | 0.129 ± 0.00287
308.15 K, x2 = 0.0991 | 0.0968 ± 0.00215
308.15 K, x2 = 0.1692 | 0.157 ± 0.00335
308.15 K, x2 = 0.235 | 0.202 ± 0.0043
308.15 K, x2 = 0.3202 | 0.25 ± 0.00526
308.15 K, x2 = 0.3985 | 0.276 ± 0.00598
308.15 K, x2 = 0.5414 | 0.306 ± 0.00645
308.15 K, x2 = 0.6464 | 0.306 ± 0.00645
308.15 K, x2 = 0.7326 | 0.29 ± 0.00621
308.15 K, x2 = 0.811 | 0.246 ± 0.00526
308.15 K, x2 = 0.8986 | 0.182 ± 0.00382
308.15 K, x2 = 0.9603 | 0.0817 ± 0.00191

CCCCCO [pentan-1-ol]
Settings | mass density, [2] [kg/m3] | relative permittivity, [1]
298.15 K | 810.89 ± 0.31 | 15 ± 0.24
308.15 K | 803.7 ± 0.31 | 13.51 ± 0.24

CCCC(C)O (stereo not given) [pentan-2-ol]
Settings | mass density, [2] [kg/m3] | relative permittivity, [1]
298.15 K | 806.11 ± 0.82 | 13.54 ± 0.23
308.15 K | 798 ± 0.81 | 12.08 ± 0.23

CCCC(C)O (stereo not given) [pentan-2-ol] + CCCCOCCCC
[3]
Settings | excess molar enthalpy [kcal/mol]
298.15 K, x2 = 0.0974 | 0.0839 ± 0.00191
298.15 K, x2 = 0.1685 | 0.136 ± 0.00287
298.15 K, x2 = 0.2474 | 0.185 ± 0.00406
298.15 K, x2 = 0.3335 | 0.225 ± 0.00478
298.15 K, x2 = 0.397 | 0.243 ± 0.00526
298.15 K, x2 = 0.5096 | 0.268 ± 0.00574
298.15 K, x2 = 0.549 | 0.27 ± 0.00574
298.15 K, x2 = 0.6386 | 0.268 ± 0.00574
298.15 K, x2 = 0.705 | 0.255 ± 0.0055
298.15 K, x2 = 0.7803 | 0.232 ± 0.00502
298.15 K, x2 = 0.8623 | 0.193 ± 0.00406
298.15 K, x2 = 0.9322 | 0.118 ± 0.00263
308.15 K, x2 = 0.0841 | 0.0758 ± 0.00167
308.15 K, x2 = 0.1634 | 0.138 ± 0.00311
308.15 K, x2 = 0.2305 | 0.182 ± 0.00382
308.15 K, x2 = 0.3156 | 0.225 ± 0.00478
308.15 K, x2 = 0.4161 | 0.264 ± 0.00574
308.15 K, x2 = 0.4834 | 0.284 ± 0.00598
308.15 K, x2 = 0.5759 | 0.288 ± 0.00621
308.15 K, x2 = 0.6314 | 0.286 ± 0.00621
308.15 K, x2 = 0.7299 | 0.265 ± 0.00574
308.15 K, x2 = 0.8144 | 0.234 ± 0.00502
308.15 K, x2 = 0.908 | 0.161 ± 0.00359
308.15 K, x2 = 0.964 | 0.0746 ± 0.00167
